US20260151403A1, “NEK7 DEGRADERS AND METHODS OF USE THEREOF” (Captor Therapeutics S.A., priority 2022, published 2026)

Legend:
NEK7-HiBiT protein = NEK7-HiBiT protein (Homo sapiens, UniProt Q8TDX7); assay: NEK7-HiBiT degradation assay (Nano-Glo HiBiT Lytic Assay) in HEK293 NEK7-HiBiT cells; assay type: cell-based; conditions: 24 h, conc. 0.1, 1 and 10 μM tested, concentration of the table values not stated, mean of 3 technical replicates
In short: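 HEK293 cells with CRISPR knock-in N-terminal HiBiT-tagged NEK7 exposed to compound for 24 h at 37 °C, 5% CO2. Residual NEK7-HiBiT was read as Nano-Glo HiBiT lytic luminescence and expressed as % of DMSO control across triplicates; compounds run at 0.1, 1 and 10 μM.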

NEK7 protein = NEK7 protein (Homo sapiens, UniProt Q8TDX7+Q96SW2); assay: NEK7 protein degradation determined by Western blot in human PBMC-derived macrophages; assay type: cell-based; conditions: 24 h; for remaining NEK7 protein amount at 10 µM: densitometric values normalized to loading control, read-out: Amount of NEK7 protein (% of DMSO control); for NEK7 protein degradation (Western blotting, in words): FIG. 1
Procedure: Macrophages were differentiated from human PBMCs isolated from buffy coats from healthy donors.
Buffy coats were diluted 1:1 (v/v) with DPBS (Sigma-Aldrich) in falcon tubes. After reconstitution, suspension was carefully layered on Histopaque-1077 solution (Sigma-Aldrich) and centrifuged (760×g, RT, 20 min; Brakes Off). PBMCs were collected and washed with DPBS (3× at 350×g, RT, 8 min and 1× at 200×g, RT, 10 min; Brakes On). Subsequently, cells were resuspended in appropriate volume of RPMI 1640 medium (Gibco) supplemented with 10% of heat-inactivated FBS (Gibco) and 1% of Penicillin-Streptomycin Solution 100x (Biowest). Cell viability was measured using trypan blue solution (Sigma-Aldrich).
10×10^6 of PBMCs per well were seeded on 6-well plates in complete medium supplemented with 10 ng/ml of M-CSF growth factor (R&D Systems). Differentiation was conducted for a week with medium replacement every 2-3 days. Differentiation of PBMCs into mature macrophages was confirmed by microscopic evaluation and FACS surface staining for the following markers: CD11b, CD14, CD16 (BD Pharmingen). Differentiated macrophages were subjected on NLRP3 inflammasome activation assay.
Human PBMC-derived macrophages were pre-treated for 24 h with exemplary compounds at the specific concentrations. Dilutions of tested compound were prepared in DMSO. Afterwards cells were primed with 1 μg/ml of LPS (Invivogen) for 3 h and NLRP3 inflammasomes were activated with 5 μM of nigericin solution (Invivogen) for 1 h. Supernatants were centrifuged and stored for ELISA assays and cell lysates were prepared for Western blotting analysis.
Cell lysates from Human PBMC-derived macrophages were prepared by direct lysis in 40 μl RIPA lysis buffer (50 mM Tris·HCl pH 7.4, 150 mM NaCl, 1% NP-40, 0.25% sodium deoxycholate, 0.1% SDS and 1 mM EDTA) supplemented with protease and phosphatase inhibitors (cOmplete EDTA-free Protease Inhibitor Cocktail, Roche; Halt™ Phosphatase Inhibitor Cocktail, Thermo Scientific). Subsequently, lysates were snap frozen in liquid nitrogen and stored in −20° C. Following thawing, lysates were centrifuged at 4° C., 19 000×g for 15 min for supernatants collection. The protein concentration in each sample was determined by BCA method (Pierce BCA Protein Assay Kit, Thermo Fischer Scientific). The absorbance was measured using CLARIOstar Multimode Plate Reader at 562 nm. SDS-PAGE samples were prepared by mixing the lysates with 5×SB and RIPA buffer. Denaturation of the samples was performed by incubation at 95° C. for 5 minutes.
The protein samples were resolved on 4-20% TGX Stain-Free™ protein gels (Bio-Rad) and transferred onto nitrocellulose membranes (Bio-Rad) using Trans-Blot® Turbo system (Bio-Rad). Membranes were blocked in 5% non-dried milk (NFM) in TBS-T (10 mM Tris, 150 mM NaCl, 0.1% Tween-20) for 1 h at room temperature (RT). Membranes were incubated with primary antibodies for NEK7 (O/N, 4° C.) and loading control—β-Actin (1 h, RT) diluted in 5% NFM in TBS-T, followed by incubation with the appropriate horseradish peroxidase (HRP) conjugated secondary antibody diluted in 5% NFM in TBS-T for 1 h in RT. Between each antibody incubation, the membranes were washed in TBS-T. Membranes were developed using SuperSignal West Pico PLUS chemiluminescent substrate (ThermoScientific). Membrane images were captured using Chemi Doc Imager. The analysis was performed in Image Lab software. Densitometric values for NEK7 protein were normalized to the loading control and calculated as a relative to the cells treated with DMSO control.
NEK7-HiBiT degradation results were further confirmed for selected compounds in human PBMC-derived macrophages.

Chain of NEK7-HiBiT protein (Q8TDX7 whole entry): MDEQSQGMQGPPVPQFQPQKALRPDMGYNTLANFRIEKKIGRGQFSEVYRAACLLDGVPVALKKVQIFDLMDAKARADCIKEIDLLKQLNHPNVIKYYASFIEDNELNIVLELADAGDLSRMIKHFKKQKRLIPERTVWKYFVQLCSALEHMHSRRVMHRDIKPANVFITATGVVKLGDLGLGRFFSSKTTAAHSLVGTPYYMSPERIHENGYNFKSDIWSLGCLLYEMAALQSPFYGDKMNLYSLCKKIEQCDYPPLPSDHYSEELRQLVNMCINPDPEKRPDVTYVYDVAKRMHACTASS
Chain of NEK7-HiBiT protein (Q96SW2 whole entry, further chain): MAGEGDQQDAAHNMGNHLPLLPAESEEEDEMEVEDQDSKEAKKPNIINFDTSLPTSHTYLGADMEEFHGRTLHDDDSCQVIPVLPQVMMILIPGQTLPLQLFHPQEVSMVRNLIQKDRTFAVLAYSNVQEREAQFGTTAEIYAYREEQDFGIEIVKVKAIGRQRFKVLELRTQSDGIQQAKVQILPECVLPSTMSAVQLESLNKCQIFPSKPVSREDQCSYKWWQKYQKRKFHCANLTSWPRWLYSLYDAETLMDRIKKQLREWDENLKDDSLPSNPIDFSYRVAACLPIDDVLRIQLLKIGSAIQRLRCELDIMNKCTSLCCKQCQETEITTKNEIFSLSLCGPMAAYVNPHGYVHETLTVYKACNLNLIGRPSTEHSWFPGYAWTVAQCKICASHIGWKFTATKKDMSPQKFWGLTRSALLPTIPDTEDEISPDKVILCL
Chain of NEK7-HiBiT protein (Q16531 whole entry partner): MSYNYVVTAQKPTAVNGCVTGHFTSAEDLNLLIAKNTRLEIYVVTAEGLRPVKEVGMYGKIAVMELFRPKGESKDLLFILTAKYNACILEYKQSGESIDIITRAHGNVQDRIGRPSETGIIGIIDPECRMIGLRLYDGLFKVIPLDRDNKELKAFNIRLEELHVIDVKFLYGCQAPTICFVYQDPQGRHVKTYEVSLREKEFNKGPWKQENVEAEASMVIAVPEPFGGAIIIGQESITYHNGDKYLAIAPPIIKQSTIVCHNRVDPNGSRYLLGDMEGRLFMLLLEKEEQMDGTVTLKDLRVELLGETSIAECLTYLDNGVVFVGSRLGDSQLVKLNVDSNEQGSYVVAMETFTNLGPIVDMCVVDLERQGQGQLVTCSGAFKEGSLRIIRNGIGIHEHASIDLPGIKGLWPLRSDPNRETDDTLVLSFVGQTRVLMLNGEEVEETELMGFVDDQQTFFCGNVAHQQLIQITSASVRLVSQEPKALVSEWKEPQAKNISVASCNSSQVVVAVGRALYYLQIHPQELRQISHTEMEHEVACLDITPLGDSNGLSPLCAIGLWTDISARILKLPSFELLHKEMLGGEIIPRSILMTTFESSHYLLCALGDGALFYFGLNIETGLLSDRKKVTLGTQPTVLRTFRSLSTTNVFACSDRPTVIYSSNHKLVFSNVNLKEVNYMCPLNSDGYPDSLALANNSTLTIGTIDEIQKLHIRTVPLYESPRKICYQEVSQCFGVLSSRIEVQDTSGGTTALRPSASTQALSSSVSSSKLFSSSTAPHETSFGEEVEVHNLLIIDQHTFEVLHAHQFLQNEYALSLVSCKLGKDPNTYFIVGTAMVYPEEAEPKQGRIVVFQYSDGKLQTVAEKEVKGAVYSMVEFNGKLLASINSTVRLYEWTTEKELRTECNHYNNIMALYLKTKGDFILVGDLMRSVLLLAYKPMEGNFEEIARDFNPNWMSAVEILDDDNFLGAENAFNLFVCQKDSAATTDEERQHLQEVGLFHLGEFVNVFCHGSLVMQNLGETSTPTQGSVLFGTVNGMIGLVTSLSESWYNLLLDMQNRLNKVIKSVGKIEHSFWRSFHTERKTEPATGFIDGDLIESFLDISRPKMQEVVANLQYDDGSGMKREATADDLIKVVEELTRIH
Chain of NEK7 protein (Q8TDX7 whole entry): as the sequence (Q8TDX7 whole entry) above
Chain of NEK7 protein (Q96SW2 whole entry): as the sequence (Q96SW2 whole entry, further chain) above
Chain of NEK7 protein (Q16531 whole entry partner): as the sequence (Q16531 whole entry partner) above

Structure (SMILES)	Levels of NEK7-HiBiT Protein (as a % of DMSO control) (NEK7-HiBiT protein)	remaining NEK7 protein amount at 10 µM (NEK7 protein) [%]	NEK7 protein degradation (Western blotting, in words) (NEK7 protein)
Cc1c(C2CCCCN2)ccc2c1CN(C1CCC(=O)NC1=O)C2=O (centres unmarked) [Compound 19, 3-(4-methyl-1-oxo-5-(piperidin-2-yl)isoindolin-2-yl)piperidine-2,6-dione]	B (Levels of NEK7-HiBiT Protein > 25% and ≤50%)	40 to 75	–
O=C1CCC(N2Cc3cc(-c4ccccn4)ccc3C2=O)C(=O)N1 (centres unmarked) [2(2), 3-(1-oxo-5-(pyridin-2-yl)isoindolin-2-yl)piperidine-2,6-dione]	B (Levels of NEK7-HiBiT Protein > 25% and ≤50%)	40 to 75	–
O=C1CCC(N2Cc3cc(-c4ccc(-c5ccccc5)cn4)ccc3C2=O)C(=O)N1 (centres unmarked) [4(2), 3-(1-oxo-5-(5-phenylpyridin-2-yl)isoindolin-2-yl)piperidine-2,6-dione]	A (Levels of NEK7-HiBiT Protein ≤ 25%)	40 to 75	–
O=C1CCC(N2Cc3cc(C4CCCCN4)c(F)cc3C2=O)C(=O)N1 (centres unmarked) [Compound 23, 3-(6-fluoro-1-oxo-5-(piperidin-2-yl)isoindolin-2-yl)piperidine-2,6-dione]	B (Levels of NEK7-HiBiT Protein > 25% and ≤50%)	40 to 75	–
CC1c2cc(C3CCCCO3)ccc2C(=O)N1C1CCC(=O)NC1=O (centres unmarked) [Compound 64, 3-(3-methyl-1-oxo-5-(tetrahydro-2H-pyran-2-yl)isoindolin-2-yl)piperidine-2,6-dione]	A (Levels of NEK7-HiBiT Protein ≤ 25%)	≤ 10	NEK7 protein degradation

The next lines start with the values.

Levels of NEK7-HiBiT Protein (as a % of DMSO control) (NEK7-HiBiT protein)	remaining NEK7 protein amount at 10 µM (NEK7 protein) [%]	NEK7 protein degradation (Western blotting, in words) (NEK7 protein)	Structure (SMILES)
A (Levels of NEK7-HiBiT Protein ≤ 25%)	10 to 40	NEK7 protein degradation	O=C1CCC(N2Cc3cc(C4CCCCN4)ccc3C2=O)C(=O)N1 (centres unmarked) [Compound 2, 3-(1-oxo-5-(piperidin-2-yl)isoindolin-2-yl)piperidine-2,6-dione]
A (Levels of NEK7-HiBiT Protein ≤ 25%)	≤ 10	NEK7 protein degradation	CC1c2cc(C3CCCCN3)ccc2C(=O)N1C1CCC(=O)NC1=O (centres unmarked) [Compound 25, 3-(3-methyl-1-oxo-5-(piperidin-2-yl)isoindolin-2-yl)piperidine-2,6-dione]
